Converted amounts (≈) assume the structure as drawn. “Also recorded” adds a separate entry of the source. Where two headings read alike, the source gives them in different places.
Experiments:
[1] = tested on: ER-like binding site (specific [3H]-E2 binding); experiment: Competitive displacement of specific [3H]-E2 binding in gonad cytosolic extracts; settings: for Displacement activity / affinity for ER-like binding site (in words): 24 nM [3H]-E2; for IC50: read-out: IC50, displacement of specific [3H]-E2 binding, 24 nM [3H]-E2, 18 hr incubation, n = 3
[2] = tested on: Marisa cornuarietis; type: in vivo; settings: for Oviduct malformations under co-exposure with BPA: 5 μg BPA/L plus 3 μg ICI 182,780/L or 10 μg tamoxifen/L; for EC10 (95% confidence intervals), clutch production / EC10 (95% confidence intervals), egg production / NOEC, clutch production / NOEC, egg production: entire duration
[3] = tested on: Marisa cornuarietis; experiment: Exposure series I: 6-month semistatic exposure of sexually mature snails at 22°C; type: in vivo
[4] = ref Heemken et al. 2001; Staples et al. 1998; cited from earlier work
[5] = cited from earlier work
[6] = tested on: aquatic organisms (vertebrates and invertebrates); settings: ref Hirano et al. 2004, Ike et al. 2002; cited from earlier work
[7] = tested on: Japanese medaka (Oryzias latipes); settings: ref Metcalfe et al. 2001; cited from earlier work
[8] = tested on: swordtails (Xiphophorus helleri); settings: male fish; ref Kwak et al. 2001; cited from earlier work
[9] = tested on: Marisa cornuarietis; settings: ref Oehlmann et al. 2000; cited from earlier work
[10] = tested on: freshwater sponges (Heteromyenia sp.); settings: ref Hill et al. (2002); cited from earlier work
[11] = tested on: Caenorhabditis elegans; settings: ref Tominaga et al. (2003); cited from earlier work
[12] = tested on: C. riparius; settings: freshly emerged midges, 1 to 3,000 μg/L; ref Hahn et al. (2002); cited from earlier work
[13] = tested on: Acartia tonsa; settings: ref Andersen et al. (1999); cited from earlier work
[14] = tested on: Potamopyrgus antipodarum; settings: exposure via sediments; ref Duft et al. (2003); cited from earlier work
[15] = tested on: vertebrate ER; settings: ref Bolger et al. 1998; cited from earlier work
[16] = prespawning period (days 0–65), 22°C, based on measured BPA concentrations
[17] = prespawning period, 22°C, measured concentrations
[18] = 20°C, measured BPA concentrations
[19] = 27°C, measured BPA concentrations

**Q.** With `C[C@]12CC[C@H]3[C@@H](CCC4=CC(=O)CC[C@@]43C)[C@@H]1CC[C@@H]2O` [T, testosterone] as the compound, how does the “Displacement activity / affinity for ER-like binding site (in words)” value [1] read?
**A.** only weak displacement activity

**Q.** Which “Imposex intensities compared to SC under co-exposure with BPA” value ([2]; 5 μg BPA/L plus 3 μg ICI 182,780/L, both temperatures, Weir test p < 0.05) does the source give for `C[C@]12CC[C@@H]3c4ccc(O)cc4C[C@@H](CCCCCCCCC[S+]([O-])CCCC(F)(F)C(F)(F)F)[C@H]3[C@@H]1CC[C@@H]2O` (stereo partly shown) [ICI, ICI 182,780, reference compound] here?
**A.** imposex intensities increased

**Q.** What about the “Oviduct malformations under co-exposure with BPA” value ([2]; 20°C) of the same compound?
**A.** No oviduct malformations

**Q.** What does the source list for `CC/C(=C(\c1ccccc1)c1ccc(OCCN(C)C)cc1)c1ccccc1` [Tam, tamoxifen, reference compound]?
**A.** Oviduct malformations under co-exposure with BPA ([2]; 20°C): No oviduct malformations; Displacement activity / affinity for ER-like binding site (in words) [1]: moderate affinity

**Q.** With `C[C@]12CC[C@@H]3c4ccc(O)cc4CC[C@H]3[C@@H]1CC[C@@H]2O` [E2] as the compound, how does the IC50 [1] read?
**A.** 0.753 µM

**Q.** Which “Cumulative clutch and egg production compared with SC” value ([3]; entire experiment, nominal BPA 0.1, 0.5 and 1 μg/L, PC 0.01 μg/L EE2, p < 0.05) does the source give for `CC(C)(c1ccc(O)cc1)c1ccc(O)cc1` [BPA, 4,4′-isopropylidine diphenol] here?
**A.** significantly more

**Q.** What about the “Incidence of superfemales with oviduct malformations” value (“Incidence of superfemales” below) ([3]; nominal 0.05 μg/L BPA, 22°C) of the same compound?
**A.** 1.2%

**Q.** And the “Incidence of superfemales” value ([3]; nominal 0.1 μg/L BPA, 22°C)?
**A.** 0%

**Q.** And the “Incidence of superfemales” value ([3]; nominal 0.25 μg/L BPA, 22°C)?
**A.** 2.0%

**Q.** What about the “Incidence of superfemales” value ([3]; nominal 0.5 μg/L BPA, 22°C) of the same compound?
**A.** 3.1%

**Q.** What about the “Incidence of superfemales” value ([3]; nominal 1 μg/L BPA, 22°C) of the same compound?
**A.** 3.2%

**Q.** And the “EC10 (95% confidence intervals), clutch production” value [3, 16]?
**A.** 14.6 (13.8–15.4) ng/L

**Q.** And the “EC10 (95% confidence intervals), egg production” value [3, 16]?
**A.** 13.9 (12.8–15.0) ng/L

**Q.** What about the “LOEC, clutch production” value [3, 17] of the same compound?
**A.** 48.3 ng/L

**Q.** And the “LOEC, egg production” value [3, 17]?
**A.** 48.3 ng/L

**Q.** And the “NOEC, clutch production” value [3, 17]?
**A.** 7.9 ng/L

**Q.** What about the “NOEC, egg production” value [3, 17] of the same compound?
**A.** 7.9 ng/L

**Q.** What about the Imposex development ([3]; sexually mature snails, 22°C, ANOVA and Weir test p > 0.2) of the same compound?
**A.** did not induce imposex development

**Q.** What about the Imposex development ([2]; 20°C and 27°C, ANOVA and Weir test p > 0.5) of the same compound?
**A.** did not induce imposex development

**Q.** What about the “Size of genital organs (penis pouch, penis sheath, penis) in males” value ([2]; 20°C or 27°C, with the exception of penis length at 20°C) of the same compound?
**A.** did not affect

**Q.** What about the “EC10 (95% confidence intervals), clutch production” value [2, 18] of the same compound?
**A.** 18.0 (6.20–52.4) ng/L

**Q.** And the “EC10 (95% confidence intervals), egg production” value [2, 18]?
**A.** 14.8 (6.07–36.2) ng/L

**Q.** And the “NOEC, clutch production” value ([2]; 20°C, measured concentrations)?
**A.** < 106 ng/L

**Q.** What about the “NOEC, egg production” value ([2]; 20°C, measured concentrations) of the same compound?
**A.** < 106 ng/L

**Q.** And the “LOEC, clutch production” value ([2]; 20°C, measured concentrations)?
**A.** 106 ng/L

**Q.** What about the “LOEC, egg production” value ([2]; 20°C, measured concentrations) of the same compound?
**A.** 106 ng/L

**Q.** What about the “Incidence of superfemales” value ([2]; 20°C, nominal 0.25 μg/L BPA) of the same compound?
**A.** 4.8

**Q.** What about the “Incidence of superfemales” value ([2]; 20°C, nominal 0.5 μg/L BPA) of the same compound?
**A.** 8.0

**Q.** What about the “Incidence of superfemales” value ([2]; 20°C, nominal 1 μg/L BPA) of the same compound?
**A.** 14.8

**Q.** What about the “Incidence of superfemales” value ([2]; 20°C, nominal 5 μg/L BPA) of the same compound?
**A.** 11.5

**Q.** And the “Mortality compared to SC” value ([2]; 20°C, 0.25, 0.5, 1 and 5 μg BPA/L, χ2 test)?
**A.** increased significantly

**Q.** What about the “Clutch and egg production compared with SC” value ([2]; 20°C, cumulative p < 0.01, per female p < 0.001) of the same compound?
**A.** significantly more

**Q.** And the “Penis length in males” value ([2]; 20°C, p < 0.01)?
**A.** significant decrease; also recorded: concentration-dependent reduction

**Q.** What about the “EC10 (95% confidence intervals), clutch production” value [2, 19] of the same compound?
**A.** 2090 (796–5,460) ng/L

**Q.** And the “EC10 (95% confidence intervals), egg production” value [2, 19]?
**A.** 998 (161–6,200) ng/L

**Q.** And the “NOEC, clutch production” value ([2]; 27°C, measured concentrations)?
**A.** ≥ 1990 ng/L

**Q.** And the “NOEC, egg production” value ([2]; 27°C, measured concentrations)?
**A.** 205 ng/L

**Q.** And the “Clutch production compared with control” value ([2]; 27°C, groups exposed solely to BPA)?
**A.** none of the groups exposed solely to BPA produced significantly more clutches

**Q.** And the “EC10, clutch production” value [2, 19]?
**A.** 2.09 ng/mL (≈ 9.15 nM)

**Q.** What about the “EC10, egg production” value [2, 19] of the same compound?
**A.** 0.998 ng/mL (≈ 4.37 nM)

**Q.** What about the “LOEC, egg production” value ([2]; 27°C, measured concentrations) of the same compound?
**A.** 436 ng/L

**Q.** What about the “Cumulative egg production compared with SC” value ([2]; 27°C, only at nominal 1 and 5 μg/L, p < 0.05) of the same compound?
**A.** significant increase

**Q.** What about the “log KOW” value [4] of the same compound?
**A.** 2.20–3.82

**Q.** And the “half-life (degradation)” value ([5]; in sewage treatment plants, ref Howard 1989)?
**A.** 28 days

**Q.** And the “half-life (degradation)” value ([5]; in water, ref Dorn et al. 1987)?
**A.** 2.5 to 4 days

**Q.** And the “96-hr LC50 (median lethal concentration)” value [6]?
**A.** 1000 to 20000 ng/mL

**Q.** What about the “Concentration inducing ovotestes (as low as)” value [7] of the same compound?
**A.** 10 ng/mL

**Q.** And the “Concentration range inhibiting development of the sword” value [8]?
**A.** 0.2 to 20 ng/mL

**Q.** And the “Concentration inducing superfeminization syndrome (as low as)” value [9]?
**A.** 1 ng/mL

**Q.** What about the “Concentration completely inhibiting germination” value [10] of the same compound?
**A.** 80000 ng/mL

**Q.** What about the “Concentration range with significant reductions in growth rates” value [10] of the same compound?
**A.** 160 to 160000 ng/mL

**Q.** What about the LC50 [11] of the same compound?
**A.** > 100 µM

**Q.** What about the “Reduction of yolk protein contents” value [12] of the same compound?
**A.** 20–25%

**Q.** What about the “Concentration with increase of egg production” value [13] of the same compound?
**A.** 20 μg BPA/L

**Q.** And the “EC10, increase of embryo numbers in the brood pouch (superfemale response)” value [14]?
**A.** 0.22 μg BPA/kg

**Q.** And the “Affinity to the vertebrate ER (in words)” value [15]?
**A.** weak affinity

**Q.** What about the IC50 [1] of the same compound?
**A.** 24.8 µM

From publication PMC1874184 (Environmental Health Perspectives, 2005)
